Source: US4594329A, “CRF analogs” (The Salk Institute for Biological Studies, priority 1984, dated 1986)
Square brackets hold non-standard residues; d marks the D form. Peptide text beside a SMILES is read from it. hArg = N=C(N)NCCCC[C@H](N)C(=O)O; Nle = CCCC[C@H](N)C(=O)O; Orn = NCCC[C@H](N)C(=O)O

Tests used:
[1] = system: secretion of ACTH and β-endorphin; settings: in mammals; cited from earlier work
[2] = in mammals; cited from earlier work
[3] = system: cultured rat pituitary cells; test: secretion of ACTH and β-endorphin by cultured rat pituitary cells; format: cell-based; settings: general procedure of Example III
Method: (§1) The synthetic peptide AHC and oCRF were examined for their effects on the secretion of ACTH and β-endorphin in vitro and was also in vivo. The potency of synthetic oCRF to stimulate the secretion of ACTH and β-endorphin by cultured rat pituitary cells was measured using the procedure as generally set forth in Endocrinology, 91, 562 (1972). […] In vivo testing is carried out using the general procedure set forth in C. Rivier et al., Science, 218, 377 (1982).

[4] = lowering of blood pressure, in vivo testing; settings: for lowering of blood pressure: general procedure of Example III; for lowering of blood pressure compared with rCRF: comparison with rCRF
Method: as §1

[5] = rats; administered into the ventricles; cited from earlier work

Compound | stimulates the secretion of ACTH and β-END-LI [3] | lowering of blood pressure [4] | further results
CC[C@H](C)[C@H](NC(=O)[C@@H](NC(=O)[C@H](CC(=O)O)NC(=O)[C@H](CC(C)C)NC(=O)[C@H](CC(C)C)NC(=O)[C@H](CC(C)C)NC(=O)[C@H](CCCNC(=N)N)NC(=O)[C@H](CC(N)=O)NC(=O)[C@H](CC(N)=O)NC(=O)[C@H](C)NC(=O)[C@H](C)NC(=O)[C@H](CCC(N)=O)NC(=O)[C@H](CCC(N)=O)NC(=O)[C@H](CCCCN)NC(=O)[C@H](CCC(=O)O)NC(=O)[C@H](CCCCN)NC(=O)[C@H](CCC(=O)O)NC(=O)[C@H](CCC(N)=O)NC(=O)[C@H](CCCCN)NC(=O)[C@H](CCC(=O)O)NC(=O)[C@@H](NC(=O)[C@H](CCC(=O)O)NC(=O)[C@@H](NC(=O)[C@H](CCSC)NC(=O)[C@H](CCCCN)NC(=O)[C@H](CCCNC(=N)N)NC(=O)[C@H](CC(C)C)NC(=O)[C@H](CC(C)C)NC(=O)[C@H](CCC(=O)O)NC(=O)[C@H](CC(C)C)NC(=O)[C@H](CO)NC(=O)[C@H](CC(C)C)NC(=O)[C@H](CC(=O)O)NC(=O)[C@@H](NC(=O)[C@H](CO)NC(=O)[C@@H](NC(=O)[C@@H]1CCCN1C(=O)[C@@H]1CCCN1C(=O)CNC(=O)[C@@H]1CCC(=O)N1)[C@@H](C)CC)[C@@H](C)CC)[C@@H](C)CC)[C@@H](C)CC)[C@@H](C)O)C(N)=O [Sauvagine] | – | – | biological activity in stimulating the secretion of ACTH and β-endorphin (reported) [1]: stimulating the secretion of ACTH and β-endorphin; biological activity in lowering blood pressure (reported) [2]: biological activity in lowering blood pressure in mammals
CCCC[C@H](NC(=O)[C@H](CCC(=O)O)NC(=O)[C@H](CCCNC(=N)N)NC(=O)[C@H](CC(C)C)NC(=O)[C@H](CC(C)C)NC(=O)[C@H](Cc1c[nH]cn1)NC(=O)[C@H](Cc1ccccc1)NC(=O)[C@@H](NC(=O)[C@H](CC(C)C)NC(=O)[C@H](CC(=O)O)NC(=O)[C@H](CC(C)C)NC(=O)[C@H](CO)NC(=O)[C@@H](NC(=O)[C@@H]1CCCN1C(=O)[C@@H]1CCCN1C(=O)[C@H](CCC(=O)O)NC(=O)[C@@H](N)CCC(N)=O)[C@@H](C)CC)[C@@H](C)O)C(=O)N[C@@H](CC(C)C)C(=O)N[C@@H](CCC(=O)O)C(=O)N[C@@H](CCSC)C(=O)N[C@H](C(=O)N[C@@H](CCCCN)C(=O)N[C@@H](C)C(=O)N[C@@H](CC(=O)O)C(=O)N[C@@H](CCC(N)=O)C(=O)N[C@@H](CC(C)C)C(=O)N[C@@H](C)C(=O)N[C@@H](CCC(N)=O)C(=O)N[C@@H](CCC(N)=O)C(=O)N[C@@H](C)C(=O)N[C@@H](Cc1c[nH]cn1)C(=O)N[C@@H](CO)C(=O)N[C@@H](CC(N)=O)C(=O)N[C@@H](CCCNC(=N)N)C(=O)N[C@@H](CCCCN)C(=O)N[C@@H](Cc1ccc(O)cc1)C(=O)N[C@@H](CC(C)C)C(=O)N[C@@H](CC(=O)O)C(=O)N[C@@H](CCC(=O)O)C(=O)N[C@@H](C)C(N)=O)[C@@H](C)O [[Nle^18,Tyr^37,Glu^40]-oCRF(2-41)] (H-QEPPISLDLTFHLLRE[Nle]LEMTKADQLAQQAHSNRKYLDEA-NH2) | stimulates the secretion of ACTH and β-END-LI | very significant lowering of blood pressure | –
Ac-GEEPPISLDLTFHLLREVLEMARAEQLAQQAHLNRKLMEEI-NH2 [[Acetyl-Gly^1, Leu^33, Glu^40]-rCRF] | stimulates the secretion of ACTH and β-END-LI | very significant lowering of blood pressure | –
Ac-PPISLDLTFHLLREVLEMARAEQLAEQAHSNRKYMEEI-NH2 | stimulates the secretion of ACTH and β-END-LI | very significant lowering of blood pressure | lowering of blood pressure compared with rCRF [4]: to a greater extent than rCRF
CRF: corticotropin releasing factor, the hentetracontapeptide; species not stated at the place (H-SEEPPISLDLTFHLLREVLEMARAEQLAQQAHSNRKLMEII-NH2; ends and bridges not checked; UniProt P06850 154-194, looked up) | – | – | activity [5]: increases activity; learning performance [5]: improves learning performance
H-PPISIDLSLELLRKMIEIAKQEKEKEQAANNRLLMDTI-NH2 | stimulates the secretion of ACTH and β-END-LI | very significant lowering of blood pressure | –
H-PPISLDLTFHLLREVLEMARAEQLAQQAHLNRKLMEQI-NH2 | stimulates the secretion of ACTH and β-END-LI | very significant lowering of blood pressure | –
H-SEEPPISLDLTFHLLREVLEMTRAEQLAEQAHSNRKLMEEI-NH2 [[Thr^22, Glu^29,40]-rCRF] | stimulates the secretion of ACTH and β-END-LI | very significant lowering of blood pressure | –
H-SEEPPISLDLTFHLLREVLE[Nle]ARAEQLAQQAYLNRKLMEEI-NH2 [[Nle^21, Tyr^32, Leu^33, Glu^40]-rCRF] | stimulates the secretion of ACTH and β-END-LI | very significant lowering of blood pressure | lowering of blood pressure compared with rCRF [4]: to a greater extent than rCRF
H-SEEPPISLDLTFHLLREVLE[Nle]A[hArg]AEQLAQQAHLNRKLMEE[Nle]-NH2 | stimulates the secretion of ACTH and β-END-LI | very significant lowering of blood pressure | –
H-SEEPPISLDLTLELLREMLEME[Orn]AEKEAEQAALNRLLLEEA-NH2 | stimulates the secretion of ACTH and β-END-LI | very significant lowering of blood pressure | –
H-SEEPPISLELTFHLLREVLE[Nle]ARAEQLAEQAHLNRKLMEII-NH2 [[Glu^9, Nle^21, Glu^29, Leu^33]-rCRF] | stimulates the secretion of ACTH and β-END-LI | very significant lowering of blood pressure | lowering of blood pressure compared with rCRF [4]: to a greater extent than rCRF
H-SEEPPIS[Nle]DLSFHLLREVLEMARAEQLAQQAHLNRKLMEEI-NH2 [[Nle^8, Ser^11, Leu^33, Glu^40]-rCRF] | stimulates the secretion of ACTH and β-END-LI | very significant lowering of blood pressure | –
H-SQEPPISLDLTFALLREMLEMAKAEQEAEQAALNRLLLEEA-NH2 [[Ala^13]-AHC] | stimulates the secretion of ACTH and β-END-LI | very significant lowering of blood pressure | –
H-SQEPPISLDLTFHLLREVLEMTRADQLAQQAHSNRRLLDIA-NH2 [[Arg^23,36]-oCRF] | – | very significant lowering of blood pressure | secretion of ACTH and β-END-LI, amount relative to oCRF ([3]; % of oCRF): about 370%
H-SQEPPISLDLTFHLLREVLE[Nle]TKADQLAEQAHSNRKLLDIA-NH2 [[Nle^21,Glu^29]-oCRF] | stimulates the secretion of ACTH and β-END-LI | very significant lowering of blood pressure | –
H-SQEPPISLDLTFHLLRE[Nle]LE[Nle]AKAEQEAEQAALNRLLLEEA-NH2 [[Nle^18, 21]-AHC] | stimulates the secretion of ACTH and β-END-LI | very significant lowering of blood pressure | –
H-SQEPPISLDLTFHLLRE[Nle]LE[Nle]TKADQLRQQAHSNRKLLDIA-NH2 [[Nle^18,21,Arg^28]-oCRF] | stimulates the secretion of ACTH and β-END-LI | very significant lowering of blood pressure | –
H-SQEPPISLDLTLELLREMLEMAKAEQEAEQAALNRLYLEEA-NH2 [[Leu^12, Glu^13, Tyr^37]-AHC] | stimulates the secretion of ACTH and β-END-LI | very significant lowering of blood pressure | –
H-SQEPPISLELTFHLLRE[Nle]LE[Nle]AKAEQEAEQAALNRLLLEEA-NH2 [[Glu^9, Nle^18, 21]-AHC] | stimulates the secretion of ACTH and β-END-LI | very significant lowering of blood pressure | –
H-SQE[dP]PISLDLTFHLLRE[Nle]LE[Nle]AKAEQEAEQAALNRLLLEEA-NH2 [[D-Pro^4, Nle^18,21]-AHC] | stimulates the secretion of ACTH and β-END-LI | very significant lowering of blood pressure | –
H-SQ[dY][dP]PISLDLTFHLLRE[Nle]LE[Nle]AKAEQEAEQAALNRLLLEEA-NH2 [[D-Tyr^3, D-Pro^4, Nle^18, 21]-AHC] | stimulates the secretion of ACTH and β-END-LI | very significant lowering of blood pressure | –
H-YSEEPPISLDLTFHLLREVLEMARAEQLAEQAHSNRKLMEII-NH2 [[Tyr-Ser^1, Glu^29]-rCRF] | stimulates the secretion of ACTH and β-END-LI | very significant lowering of blood pressure | –
